44 molecules from ChEMBL document CHEMBL4837240 (J Med Chem, 2021) can be followed below.

pIC50: −log10 of the molar value. A value given as a limit tells only on which side of the number the result lay.

One assay has as its system MDA-MB-231. The assay is described as follows: Anticancer activity against human MDA-MB-231 cells assessed as cell viability incubated for 48 hrs by MTT assay. As to conditions: MDA-MB-231, 48 h.
For a further assay, the system named is MDA-MB-436. Briefly: Anticancer activity against human MDA-MB-436 cells assessed as cell viability incubated for 48 hrs by MTT assay. Particulars: MDA-MB-436, 48 h.

Regarding `C=CS(=O)(=O)N1CCN(c2ncnc3sc(C4=CCCCC4)cc23)CC1`, the pIC50 with MDA-MB-231 and in the assay on MDA-MB-436 was less than 4.30 in each case.

Regarding `C=CS(=O)(=O)N1CCN(c2ncnc3sc(-c4ccc(C#N)cc4)cc23)CC1`, the values for the pIC50 in the assay with MDA-MB-231 and in the assay with MDA-MB-436 were 5.09 and 5.04, respectively.

On to `C=CS(=O)(=O)N1CCN(c2ncnc3sc(-c4ccc(F)nc4)cc23)CC1`, for which the negative logarithm of the IC50 (pIC50) in the assay with MDA-MB-231 was 4.80; in the assay on MDA-MB-436, 4.76.

Consider `CN1CCN(c2ccc(-c3cc4c(N5CCN(S(=O)(=O)/C=C/c6ccccc6)CC5)ncnc4s3)cc2)CC1`, for which the pIC50 in the assay on MDA-MB-231 is 5.23; with MDA-MB-436, 5.06.

For `C=CS(=O)(=O)N1CCN(c2ncnc3sc(-c4ccc(N5CCOCC5)cc4)cc23)CC1`, the pIC50 with MDA-MB-231 was 4.74; with MDA-MB-436, 4.75.

In the case of `C=CS(=O)(=O)N1CCN(c2ncnc3sc(-c4ccc(N5CCN(C)CC5)cc4)cc23)[C@@H](C)C1`, the pIC50 in the assay with MDA-MB-231 was 5.21; in the assay on MDA-MB-436, 5.16.

Turning to `C=CS(=O)(=O)N1CCN(c2nc(OC[C@H]3CCCN3C)nc3sccc23)CC1`, the pIC50 in the assay on MDA-MB-231 and with MDA-MB-436 was less than 4.30 each time.

Regarding `C=CS(=O)(=O)N1CCN(c2ccn3ncc(-c4ccc(N5CCOCC5)cc4)c3n2)CC1`, the figures for the pIC50 in the assay on MDA-MB-231 and in the assay on MDA-MB-436 were 4.37 and 4.79, respectively.

For the molecule `CN1CCN(c2ccc(-c3cc4c(N5CCN(C(=O)Nc6ccc(F)cc6F)CC5)ncnc4s3)cc2)CC1`, the values for the pIC50 in the assay on MDA-MB-231 and with MDA-MB-436 were 4.94 and 4.70, respectively.

Take `C=CC(=O)N1CCN(c2nc(OC[C@H]3CCCN3C)nc3sc(-c4ccc(C(=O)N5CCN(C)CC5)cc4)cc23)CC1`: the negative logarithm of the IC50 (pIC50) in the assay on MDA-MB-231 was 5.27; in the assay on MDA-MB-436, 4.91.

For `CN1CCN(c2ccc(-c3cc4c(N5CCN(C(=O)Nc6cccc(F)c6)CC5)ncnc4s3)cc2)CC1`, the values for the pIC50 in the assay with MDA-MB-231 and in the assay with MDA-MB-436 were 4.88 and 4.74, respectively.

Take `C=CS(=O)(=O)N1CCN(c2nc(OCC3CCCCN3C)nc3sc(-c4ccc(C#N)cc4)cc23)CC1` (stereo not drawn): the pIC50 in the assay on MDA-MB-231 is 5.50; in the assay with MDA-MB-436, 5.39.

`C=CS(=O)(=O)N1CCN(c2nc(OC[C@H]3CCCN3C)nc3sc(-c4ccc(C(=O)N5CCN(C)CC5)cc4)cc23)[C@@H](C)C1`: the pIC50 was 5.48 with MDA-MB-231 and 5.82 in the assay with MDA-MB-436.

`CCCNC(=O)N1CCN(c2ncnc3sc(-c4ccc(N5CCN(C)CC5)cc4)cc23)CC1`: the figures for the pIC50 in the assay with MDA-MB-231 and with MDA-MB-436 were 5.08 and 4.91, respectively.

In the case of `CN1CCN(c2ccc(-c3cc4c(N5CCN(C(=O)Nc6cc(C(F)(F)F)ccc6F)CC5)ncnc4s3)cc2)CC1`, the negative logarithm of the IC50 (pIC50) in the assay with MDA-MB-231 was 5.04; in the assay on MDA-MB-436, 5.05.

Take `C=CS(=O)(=O)N1CCN(c2ncnc3sc(-c4cc(Br)cnc4F)cc23)CC1`: the pIC50 is 4.62 with MDA-MB-231 and 4.55 in the assay with MDA-MB-436.

For the molecule `CN1CCN(c2ccc(-c3cc4c(N5CCN(C(=O)Nc6ccccc6F)CC5)ncnc4s3)cc2)CC1`, the results for the negative-log IC50 (pIC50) in the assay on MDA-MB-231 and in the assay on MDA-MB-436 were 4.99 and 4.85, respectively.

With `CCS(=O)(=O)N1CCN(c2nc(OC[C@H]3CCCN3C)nc3sc(-c4ccc(C(=O)N5CCN(C)CC5)cc4)cc23)CC1`, the figures for the pIC50 in the assay on MDA-MB-231 and in the assay with MDA-MB-436 were 5.38 and 5.46, respectively.

`C=CS(=O)(=O)N1CCN(c2ncnc3sc(-c4ccc(OC)nc4)cc23)CC1`: the pIC50 was 5.03 with MDA-MB-231 and 4.93 in the assay on MDA-MB-436.

Consider `CN1CCN(c2ccc(-c3cc4c(N5CCN(C(=O)Nc6ccccc6)CC5)ncnc4s3)cc2)CC1`, for which the pIC50 in the assay with MDA-MB-231 was 5.12; in the assay with MDA-MB-436 it was 5.15.

In the case of `C=CS(=O)(=O)N1CCN(c2nc(OC[C@H]3CCCN3C)nc3sc(-c4ccc(N5CCN(C)CC5)cc4)cc23)[C@@H](C)C1`, the pIC50 in the assay on MDA-MB-231 was 5.54; in the assay with MDA-MB-436, 5.72.

Take `C=CS(=O)(=O)N1CCN(c2ncnc3sc(-c4ccc(C(=O)N5CCN(C)CC5)cc4)cc23)CC1`: the pIC50 is 5.06 in the assay with MDA-MB-231 and 5.02 in the assay on MDA-MB-436.

`C=CS(=O)(=O)N1CCN(c2nc(OC[C@H]3CCCN3C)nc3sc(-c4ccc(OC)nc4)cc23)CC1`: the negative-log IC50 (pIC50) is 5.45 in the assay with MDA-MB-231 and 5.30 in the assay with MDA-MB-436.

For `C=CS(=O)(=O)N1CCN(c2ncnc3sc(-c4ccc(OC)cc4)cc23)CC1`, the negative logarithm of the IC50 (pIC50) with MDA-MB-231 was 4.52; with MDA-MB-436, 4.55.

Regarding `C=CS(=O)(=O)N1CCN(c2nc(OC[C@H]3CCCN3C)nc3sc(-c4ccc(N5CCN(C)CC5)cc4)cc23)CC1`, the figures for the pIC50 in the assay with MDA-MB-231 and with MDA-MB-436 were 6.12 and 6.27, respectively.

`CN1CCN(c2ccc(-c3cc4c(N5CCN(C(=O)Nc6ccc(C#N)cc6)CC5)ncnc4s3)cc2)CC1`: the pIC50 in the assay with MDA-MB-231 was 5.41; with MDA-MB-436, 5.30.

Consider `CCS(=O)(=O)N1CCN(c2ncnc3sc(-c4ccc(N5CCN(C)CC5)cc4)cc23)CC1`, for which the pIC50 is 5.13 in the assay on MDA-MB-231 and 4.98 in the assay with MDA-MB-436.

For `C=CS(=O)(=O)N1CCN(c2ncnc3sc(-c4cnn(Cc5ccccc5)c4)cc23)CC1`, the pIC50 in the assay with MDA-MB-231 was 4.72; in the assay on MDA-MB-436, 4.74.

`C=CS(=O)(=O)N1CCN(c2ncnc3sc(-c4ccnc(Cl)c4)cc23)CC1`: the pIC50 in the assay with MDA-MB-231 was 4.56; in the assay with MDA-MB-436, 4.52.

In the case of `CN1CCN(c2ccc(-c3cc4c(N5CCN(C(=O)Nc6ccc(OC(F)(F)F)cc6)CC5)ncnc4s3)cc2)CC1`, the figures for the pIC50 in the assay with MDA-MB-231 and in the assay on MDA-MB-436 were 5.34 and 5.20, respectively.

On to `C=CS(=O)(=O)N1CCN(c2ncnc3sc(-c4ccc(C(F)(F)F)cc4)cc23)CC1`, for which the results for the pIC50 with MDA-MB-231 and with MDA-MB-436 were 5.19 and 5.15, respectively.

Turning to `C=CS(=O)(=O)N1CCN(c2ncnc3sc(-c4cccs4)cc23)CC1`, the values for the pIC50 in the assay on MDA-MB-231 and with MDA-MB-436 were 4.47 and 4.41, respectively.

On to `C=CS(=O)(=O)N1CCN(c2ncnc3sc(-c4cn(S(=O)(=O)c5ccccc5)c5ccccc45)cc23)CC1`, for which the pIC50 in the assay on MDA-MB-231 is 4.39; with MDA-MB-436, 4.42.

As for `C=CS(=O)(=O)N1CCN(c2ccnc3ccc(-c4ccccc4)cc23)CC1`, the pIC50 with MDA-MB-231 is 4.59; in the assay with MDA-MB-436 it was 4.60.

Turning to `C=CS(=O)(=O)N1CCN(c2ncnc3sc(-c4cn(C)nc4C(F)(F)F)cc23)CC1`, the pIC50 is 4.98 in the assay with MDA-MB-231 and 4.82 in the assay on MDA-MB-436.

Regarding `C=CS(=O)(=O)N1CCN(c2ncnc3ccc(-c4ccccc4)cc23)CC1`, the pIC50 was 4.32 in the assay with MDA-MB-231 and 4.63 with MDA-MB-436.

Take `CC(C)c1cccc(C(C)C)c1NC(=O)N1CCN(c2ncnc3sc(-c4ccc(N5CCN(C)CC5)cc4)cc23)CC1`: the values for the pIC50 in the assay with MDA-MB-231 and with MDA-MB-436 were 5.07 and 4.95, respectively.

As to `CN1CCN(c2ccc(-c3cc4c(N5CCN(S(=O)(=O)c6ccccc6)CC5)nc(OCC5CCCCN5C)nc4s3)cc2)CC1` (stereo not drawn), the pIC50 in the assay on MDA-MB-231 was 5.35; in the assay with MDA-MB-436, 4.97.

As to `COc1ccc(NC(=O)N2CCN(c3ncnc4sc(-c5ccc(N6CCN(C)CC6)cc5)cc34)CC2)cc1`, the negative-log IC50 (pIC50) is 4.68 with MDA-MB-231 and 4.52 in the assay on MDA-MB-436.

For the molecule `C=CS(=O)(=O)N1CCN(c2ncnc3sc(-c4cccc5ccccc45)cc23)CC1`, the pIC50 in the assay with MDA-MB-231 is 4.63; in the assay with MDA-MB-436, 4.55.

With `C=CS(=O)(=O)N1CCN(c2ncnc3sc(-c4c(C)noc4C)cc23)CC1`, the pIC50 in the assay with MDA-MB-231 was 4.55; with MDA-MB-436 it was 4.46.

For the molecule `CN1CCN(c2ccc(-c3cc4c(N5CCN(S(=O)(=O)C6CC6)CC5)ncnc4s3)cc2)CC1`, the pIC50 in the assay on MDA-MB-231 is 4.94; in the assay with MDA-MB-436, 4.98.

With `C=CS(=O)(=O)N1CCN(c2nc(OC[C@H]3CCCN3C)nc3sc(-c4ccc(C(=O)N5CCN(C)CC5)cc4)cc23)CC1`, the pIC50 with MDA-MB-231 is 5.38; in the assay on MDA-MB-436, 5.46.

`C=CS(=O)(=O)N1CCN(c2ncnc3sc(-c4ccc(N5CCN(C)CC5)cc4)cc23)CC1`: the pIC50 in the assay with MDA-MB-231 was 5.12; in the assay with MDA-MB-436, 5.06.

The pIC50 is −log10 of the IC50, conventionally taken in molar units.
